Test results from PubChem BioAssay (NCI).
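Cells were grown in 96-well plates and exposed to each compound for 48 hours at five concentrations; endpoints were interpolated linearly between bracketing concentrations, or set to the highest concentration if not reached. TGI is the concentration that stops growth completely.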

Experiments:
Assay in all cases: growth of human tumour cells (NCI), 48 h
[1] = test system: A498 renal
[2] = test system: SK-OV-3 ovarian
[3] = test system: CCRF-CEM leukemia
[4] = test system: OVCAR-4 ovarian
[5] = test system: PC-3 prostate
[6] = test system: HT29 colon
[7] = test system: HCC-2998 colon
[8] = test system: NCI/ADR-RES ovarian
[9] = test system: UO-31 renal
[10] = test system: SK-MEL-28 melanoma
[11] = test system: M14 melanoma
[12] = test system: SK-MEL-2 melanoma
[13] = test system: SN12C renal
[14] = test system: MCF7 breast
[15] = test system: SW-620 colon
[16] = test system: U251 CNS
[17] = test system: 786-0 renal
[18] = test system: HOP-92 NSCLC
[19] = test system: SK-MEL-5 melanoma
[20] = test system: NCI-H460 lung
[21] = test system: ACHN renal
[22] = test system: SF-268 CNS
[23] = test system: HCT-116 colon
[24] = test system: IGROV1 ovarian
[25] = test system: HL-60(TB) leukemia
[26] = test system: MDA-N
[27] = test system: MDA-MB-231 breast
[28] = test system: RPMI-8226 leukemia
[29] = test system: A549 NSCLC
[30] = test system: COLO 205 colon
[31] = test system: LOX IMVI melanoma
[32] = test system: DU-145 prostate
[33] = test system: NCI-H522 lung
[34] = test system: OVCAR-8 ovarian
[35] = test system: RXF 393 renal
[36] = test system: TK-10 renal
[37] = test system: EKVX NSCLC
[38] = test system: SF-539 CNS
[39] = test system: SNB-19 CNS
[40] = test system: K-562 leukemia
[41] = test system: MALME-3M melanoma
[42] = test system: NCI-H23 lung
[43] = test system: MOLT-4 leukemia
[44] = test system: SF-295 CNS
[45] = test system: OVCAR-5 ovarian
[46] = test system: SR leukemia
[47] = test system: MDA-MB-435
[48] = test system: OVCAR-3 ovarian
[49] = test system: HCT-15 colon
[50] = test system: HOP-62 NSCLC
[51] = test system: UACC-62 melanoma
[52] = test system: HS 578T breast
[53] = test system: NCI-H226 lung
[54] = test system: KM12 colon
[55] = test system: SNB-75 CNS
[56] = test system: T-47D breast
[57] = test system: UACC-257 melanoma
[58] = test system: CAKI-1 renal
[59] = test system: BT-549 breast

Measured: TGI

CC1(C)N=C(/C=N/O)C(C)(C)N1O
not listed: [57] | [58] | [59]
> 100 µM: all other assays above

CN[C@@H](C)[C@H](OP(=O)(O)OC1[C@@H](O)[C@H](O)C(O)[C@H](O)[C@@H]1O)c1ccccc1 (stereo partly specified)
not listed: [31] | [35] | [40] | [46]
> 100 µM: all other assays above
